Test results taken from paper PMC6017357, “In Vitro Inhibitory Effects of Synthetic Cannabinoid EAM-2201 on Cytochrome P450 and UDP-Glucuronosyltransferase Enzyme Activities in Human Liver Microsomes” (Molecules : A Journal of Synthetic Chemistry and Natural …, 2018).

Tests used:
[1] = human liver microsomes; cited from earlier work
UGT1A1 = target: T1, UGT1A1 (Homo sapiens, UniProt P22309); assay: UGT1A1-catalyzed SN-38 glucuronidation in human liver microsomes; type: in vitro ADME; details: at 50 µM
T1 construct: ultrapooled human liver microsomes (0.2 mg/mL), 5 mM UDPGA; from tissue; host or cells: ultrapooled human liver microsomes
T1 sequence (P22309 26-533): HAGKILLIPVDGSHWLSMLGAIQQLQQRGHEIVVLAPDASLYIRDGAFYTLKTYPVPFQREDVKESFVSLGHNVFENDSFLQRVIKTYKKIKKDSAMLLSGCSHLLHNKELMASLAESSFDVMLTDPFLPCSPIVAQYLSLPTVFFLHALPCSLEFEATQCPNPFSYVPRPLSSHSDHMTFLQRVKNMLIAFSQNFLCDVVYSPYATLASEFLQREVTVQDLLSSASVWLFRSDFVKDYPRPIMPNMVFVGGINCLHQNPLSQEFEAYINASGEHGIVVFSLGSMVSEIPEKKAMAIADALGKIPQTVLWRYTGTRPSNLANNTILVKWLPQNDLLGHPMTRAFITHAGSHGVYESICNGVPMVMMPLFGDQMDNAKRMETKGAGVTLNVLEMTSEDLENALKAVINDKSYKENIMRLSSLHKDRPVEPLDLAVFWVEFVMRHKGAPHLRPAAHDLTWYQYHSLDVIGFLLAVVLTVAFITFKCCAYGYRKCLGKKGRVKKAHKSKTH
Procedure: (§1) The inhibitory effects of EAM-2201 on UGT1A1, UGT1A3, UGT1A4, UGT1A6, UGT1A9 and UGT2B7 were evaluated using LC-MS/MS and the cocktail of UGT substrates as previously described. Each incubation mixture was prepared in a final volume of 100 µL as follows: ultrapooled human liver microsomes (0.2 mg/mL), 5 mM UDPGA, 10 mM magnesium chloride, alamethicin (25 µg/mL), 50 mM Tris buffer (pH 7.4), various concentrations of EAM-2201 in DMSO (final concentrations of 1–50 µM, 0.5% DMSO) and the UGT enzyme-specific substrates of two cocktail sets (set A: 0.5 µM SN-38, 2 µM chenodeoxycholic acid and 0.5 µM trifluoperazine; set B: 1 µM N-acetylserotonin, 0.2 µM mycophenolic acid and 1 µM naloxone, acetonitrile content, 0.5%). […] Supernatant from sets A and B (50 µL of each) was mixed and aliquots (5 µL) were analyzed by LC-MS/MS. […]
(§2) The metabolites formed from the six UGT cocktail substrates were simultaneously measured using LC-MS/MS [41]. […] Each metabolite was quantified via SRM in the negative ion mode: chenodeoxycholic acid 24-acyl-β-glucuronide, 567.2 > 391.0; mycophenolic acid glucuronide, 495.2 > 318.9; and propofol glucuronide (IS), 353.3 > 177.1; and in the positive ion mode: SN-38 glucuronide, 569.0 > 393.0; trifluoperazine glucuronide, 584.2 > 408.1; N-acetylserotonin-β-D-glucuronide, 395.2 > 219.0; naloxone 3-β-D-glucuronide, 504.0 > 310.0; and meloxicam (IS), 352.0 > 115.1. […]

UGT2B7 = target: T2, UGT2B7 (Homo sapiens, UniProt P16662); assay: UGT2B7-catalyzed naloxone 3-β-D-glucuronidation in human liver microsomes; type: in vitro ADME; details: at 50 µM
T2 construct: ultrapooled human liver microsomes (0.2 mg/mL), 5 mM UDPGA; from tissue; host or cells: ultrapooled human liver microsomes
T2 sequence (P16662 24-529): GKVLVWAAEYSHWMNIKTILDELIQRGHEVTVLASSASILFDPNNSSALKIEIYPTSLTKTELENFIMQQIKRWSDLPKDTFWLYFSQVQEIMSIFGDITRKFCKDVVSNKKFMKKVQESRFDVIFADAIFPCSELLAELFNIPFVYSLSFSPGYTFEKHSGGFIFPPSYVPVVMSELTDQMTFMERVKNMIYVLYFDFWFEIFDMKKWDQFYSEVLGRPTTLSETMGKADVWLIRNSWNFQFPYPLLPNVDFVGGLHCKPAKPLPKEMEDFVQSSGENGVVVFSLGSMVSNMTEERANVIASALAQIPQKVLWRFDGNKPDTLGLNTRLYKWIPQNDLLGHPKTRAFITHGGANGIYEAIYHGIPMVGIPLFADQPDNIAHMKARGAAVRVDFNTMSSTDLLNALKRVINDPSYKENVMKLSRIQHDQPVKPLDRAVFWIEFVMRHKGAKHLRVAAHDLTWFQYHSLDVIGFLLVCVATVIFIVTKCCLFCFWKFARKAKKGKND
Procedure: as §1, §2

CCc1ccc(C(=O)c2cn(CCCCCF)c3ccccc23)c2ccccc12 [EAM-2201, (4-ethyl-1-naphthalenyl)[1-(5-fluoropentyl)-1H-indol-3-yl]-methanone]
number of metabolites [1]: 37 metabolites
inhibition of UGT1A1-catalyzed SN-38 glucuronidation (UGT1A1): negligibly inhibited
inhibition of UGT2B7-catalyzed naloxone 3-β-D-glucuronidation (UGT2B7): negligibly inhibited
